Patent US8530512B2, “Broad spectrum gram-positive antimicrobials and anthelmintics with efficacy against drug-resistant strains and Mycobacterium species” (priority 2004, dated 2013)
Converted amounts (≈) assume the structure as drawn. Read-outs that look alike come from different tables or passages of the source.

Experiments:
[1] = tested on: community-associated methicillin-resistant S. aureus (CA-MRSA) strains; assay: MIC screening against CA-MRSA strains; type: cell-based
[2] = tested on: Enterococcus faecalis ATCC 29212; assay: microbe, parasite or virus in culture; type: cell-based; conditions: ATCC29212; Table 4; Enterococcus faecalis ATCC 29212; read-out: MIC
[3] = Safety Testing with Swiss Webster Mice; type: in vivo
Mycobacterium fortuitum = assay: MIC assay; type: cell-based; conditions: Mycolicibacterium fortuitum
M. smegmatis = assay: MIC assay; type: cell-based; conditions: for MIC: Mycolicibacterium smegmatis, read-out: MIC M. smegmatis
[4] = tested on: Corynebacterium pseudodiphthericum; assay: microbe, parasite or virus in culture; type: cell-based; conditions: Corynebacterium pseudodiphtheriticum; Table 4; Corynebacterium pseudodiphthericum; read-out: MIC
Streptococcus mitis = assay: microbe, parasite or virus in culture; type: cell-based; conditions: Table 4, read-out: MIC
S. aureus MW2 = assay: murine thigh abscess model of infection; conditions: for CFU/thigh reduced: single intraperitoneal injection
[5] = tested on: methicillin-sensitive S. aureus (MSSA) strains; assay: MIC screening against MSSA strains; type: cell-based; conditions: Table 5, 39 tested
[6] = tested on: Gram-positive bacteria tested; assay: organism not typed; type: cell-based
Listeria monocytogenes = assay: microbe, parasite or virus in culture; type: cell-based; conditions: Table 4, read-out: MIC
Bacillus cereus = assay: microbe, parasite or virus in culture; type: cell-based; conditions: Bacillus cereus
[7] = tested on: Staphylococcus aureus MW 2; assay: MIC assay; type: cell-based; conditions: MW2, Table 4
Streptococcus agalactiae = assay: microbe, parasite or virus in culture; type: cell-based; conditions: Table 4, read-out: MIC
C. elegans = assay: motility assay; type: in vivo; design: key to Movement score, 1/1600 / Movement score, 1/800 / Movement score, 1/400 / Movement score, 1/200 / Movement score, 1/100: normal (−); slow (+); very slow (++); not motile/paralyzed (+++); conditions: for Movement score, 1/100: dilution 1/100 of stock (10.24 μg/μL; SK-03-92 1.024 μg/μL); for Movement score, 1/100 / Movement score, 1/200 / Movement score, 1/400 / Movement score, 1/800 / Movement score, 1/1600: Ive 1 ng/μL in all wells; for Movement score, 1/200: dilution 1/200 of stock (10.24 μg/μL; SK-03-92 1.024 μg/μL); for Movement score, 1/400: dilution 1/400 of stock (10.24 μg/μL; SK-03-92 1.024 μg/μL); for Movement score, 1/800: dilution 1/800 of stock (10.24 μg/μL; SK-03-92 1.024 μg/μL); for Movement score, 1/1600: dilution 1/1600 of stock (10.24 μg/μL; SK-03-92 1.024 μg/μL), overnight 20° C.
Mycobacterium avium = assay: MIC assay; type: cell-based; conditions: Mycobacterium avium
[8] = tested on: Staphylococcus aureus ATCC 29213; assay: microbe, parasite or virus in culture; type: cell-based; conditions: ATCC29213
[9] = tested on: Erysipelothrix rhusiopathiae; assay: MIC assay; type: cell-based; conditions: Table 4
[10] = tested on: S. aureus strains tested, including MRSA; assay: MIC assay
Streptococcus bovis = assay: MIC assay; type: cell-based; conditions: Streptococcus equinus, Table 4
[11] = tested on: Gram-positive bacterial species tested; assay: Minimal Bacterial Concentration Testing (MBC); type: cell-based
Description: Following the MIC, the last three wells showing no bacterial growth were diluted and plated onto BHI agar to do MBC testing.

Streptococcus pneumoniae = assay: MIC assay; type: cell-based; conditions: Table 4; Streptococcus pneumoniae (source UWL)
M. kansasii = assay: MIC assay; type: cell-based; conditions: Mycobacterium kansasii
[12] = tested on: Enterococcus faecium VRE 14; assay: microbe, parasite or virus in culture; type: cell-based
Clostridium novyi A = assay: MIC assay; type: cell-based; conditions: Table 4
[13] = tested on: Enterococcus faecium VRE 1; assay: microbe, parasite or virus in culture; type: cell-based; conditions: Enterococcus faecium, VRE
Clostridium tertium = assay: MIC assay; type: cell-based; conditions: Table 4
Mycobacterium bovis BCG = assay: microbe, parasite or virus in culture; type: cell-based; conditions: Mycobacterium tuberculosis variant bovis BCG, Table 4, Mycobacterium bovis BCG
[14] = tested on: Mycobacterium intracellulare; assay: MIC assay; type: cell-based; conditions: Mycobacterium intracellulare
Mycobacterium chelonae = assay: MIC assay; type: cell-based
Corynebacterium xerosis = assay: microbe, parasite or virus in culture; type: cell-based; conditions: Table 4, read-out: MIC
[15] = tested on: Peptostreptococcus anaerobius; assay: MIC assay; type: cell-based; conditions: Table 4
[16] = tested on: vancomycin-resistant enterococci; assay: microbe, parasite or virus in culture; type: cell-based; conditions: Enterococcus, VRE, read-out: MICs
Propionibacterium acnes = assay: MIC assay; type: cell-based; conditions: Cutibacterium acnes, Table 4
[17] = tested on: Staphylococcus aureus MRSA MC-1; assay: microbe, parasite or virus in culture; type: cell-based; conditions: Staphylococcus aureus, MRSA
Clostridium difficile = assay: MIC assay; type: cell-based; conditions: Clostridioides difficile, Table 4
[18] = tested on: Enterococcus sp., including VRE strains; assay: MIC assay; conditions: read-out: MICs
C. elegans L1 larvae = assay: developmental assay; type: in vivo; design: key to Developmental score, 1/1600 / Developmental score, 1/800 / Developmental score, 1/400 / Developmental score, 1/200 / Developmental score, 1/100: dead (+++); distressed (++); slightly delayed (+); the same as M9-only untreated wells (−); conditions: after four days, Ive 1 ng/μL in each well
[19] = Table 6, read-out: MIC M. fortuitum
[20] = Table 6, read-out: MIC M. avium
[21] = Staphylococcus aureus, Table 6, read-out: MIC S. aureus ATCC 29213
[22] = Table 6, read-out: MIC M. kansasii
[23] = Table 6, read-out: MIC M. intracellulare
[24] = Table 6, read-out: MIC M. chelonae

Compound `COc1cc(O)cc(/C=C/c2cc3ccccc3s2)c1` [SK-03-92, (E)-3-(2-(benzo[b]thiophen-2-yl)vinyl)-5-methoxyphenol] has an MIC ([1]; Staphylococcus aureus, many MRSA strains) of 2 to 4 µg/mL (≈ 7.08 to 14.2 µM), an MIC range ([1]; Table 5, CA-MRSA, 43 tested) of 2 to 4 µg/mL and an MIC [2] of 4 µg/mL (≈ 14.2 µM). The harm to mice ([3]; intraperitoneal injections up to 3 g/kg, preliminary) was “did not appear to harm the mice”, the harm to mice ([3]; ~2 g/kg dose intraperitoneally and after a repeated dose) was “did not harm mice” and the MIC (Mycobacterium fortuitum; Table 4, Mycobacterium fortuitum, read-out: MIC) was 16 µg/mL (≈ 56.7 µM). For the same compound, the MIC (Mycobacterium fortuitum; [19]) was 16 µg/mL (≈ 56.7 µM), the MIC (M. smegmatis; Table 6) was 32 µg/mL (≈ 113 µM) and the MIC [4] was 2 µg/mL (≈ 7.08 µM). It also gave an MIC (Streptococcus mitis) of 2 µg/mL (≈ 7.08 µM), a CFU/thigh reduced (S. aureus MW2; high dose, preliminary) of 3 logs and a CFU/thigh reduced (S. aureus MW2; low dose, preliminary) of 2.5 logs. For the same compound, the in vivo efficacy (S. aureus MW2; thigh abscess model) was “in vivo efficacy”, the “drop in the bacterial counts” value (S. aureus MW2; two days after drug injection, preliminary) was 2-3 log and the MIC range [5] was 1 to 2 µg/mL. The “killing of Gram-positive bacterial species” value ([6]; all of the Gram-positive bacterial species tested) was “killed”, the MIC ([6]; variety of other Gram-positive species) was 1 to 8 µg/mL (≈ 3.54 to 28.3 µM) and the MIC (Listeria monocytogenes) was 2 µg/mL (≈ 7.08 µM). The MIC (Bacillus cereus; Table 4, read-out: MIC) was 1 µg/mL (≈ 3.54 µM), the MIC [7] was 2 µg/mL (≈ 7.08 µM) and the MIC (Streptococcus agalactiae) was 2 µg/mL (≈ 7.08 µM). The “Movement score, 1/100” value (C. elegans) was “+”, the “Movement score, 1/200” value (C. elegans) was “−” and the “Movement score, 1/400” value (C. elegans) was “−”. The “Movement score, 1/800” value (C. elegans) was “−”, the “Movement score, 1/1600” value (C. elegans) was “−” and the MIC (Mycobacterium avium; [20]) was 16 µg/mL (≈ 56.7 µM). It also gave an MIC (Mycobacterium avium; Table 4, read-out: MIC) of 16 µg/mL (≈ 56.7 µM), an MIC ([8]; Table 4, Staphylococcus aureus ATCC 29213, read-out: MIC) of 2 µg/mL (≈ 7.08 µM) and an MIC [8, 21] of 4 µg/mL (≈ 14.2 µM). For the same compound, the MIC [9] was 8 µg/mL (≈ 28.3 µM), the MIC ([10]; Staphylococcus aureus, MRSA, read-out: MICs) was 2 to 4 µg/mL (≈ 7.08 to 14.2 µM) and the “relative activity against S. aureus” value ([10]; comparison among analogs of Table 6) was “best activity”. For the same compound, the MIC (Streptococcus bovis) was 2 µg/mL (≈ 7.08 µM), the MBC analysis [11] was “bactericidal” and the MIC (Streptococcus pneumoniae) was 16 µg/mL (≈ 56.7 µM). For the same compound, the MIC (M. kansasii; Table 4, Mycobacterium kamasii, read-out: MIC) was 16 µg/mL (≈ 56.7 µM), the MIC (M. kansasii; [22]) was 16 µg/mL (≈ 56.7 µM) and the MIC [12] was 2 µg/mL (≈ 7.08 µM). For the same compound, the MIC (Clostridium novyi A) was 2 µg/mL (≈ 7.08 µM), the MIC [13] was 2 µg/mL (≈ 7.08 µM) and the MIC (Clostridium tertium) was 1 µg/mL (≈ 3.54 µM). For the same compound, the MIC (Mycobacterium bovis BCG) was 25 µg/mL (≈ 88.5 µM), the MIC [14, 23] was 32 µg/mL (≈ 113 µM) and the MIC ([14]; Table 4, read-out: MIC) was 32 µg/mL (≈ 113 µM). The MIC (Mycobacterium chelonae; Table 4, Mycobacterium chelonae, read-out: MIC) was 32 µg/mL (≈ 113 µM), the MIC (Mycobacterium chelonae; [24]) was 32 µg/mL (≈ 113 µM) and the MIC (Corynebacterium xerosis) was 2 µg/mL (≈ 7.08 µM). It also gave an MIC [15] of 1 µg/mL (≈ 3.54 µM), an MIC [16] of 2 µg/mL (≈ 7.08 µM) and an MIC (Propionibacterium acnes) of 2 µg/mL (≈ 7.08 µM). It also gave an MIC ([17]; read-out: MIC S. aureus MC-1) of 2 µg/mL (≈ 7.08 µM), an MIC (Clostridium difficile) of 2 µg/mL (≈ 7.08 µM) and an MIC [18] of 2 to 4 µg/mL (≈ 7.08 to 14.2 µM).

For `COc1cc(O)cc(/C=C/Oc2ccc3ccccc3c2)c1` [SK-04-23], the MIC (Mycobacterium fortuitum; [19]) was 128 µg/mL (≈ 438 µM), the MIC (M. smegmatis; per-compound listing, Example 6) was 128 µg/mL (≈ 438 µM) and the “MIC M. smegmatis” value (M. smegmatis; Table 6) was 128 µg/mL (≈ 438 µM). For the same compound, the MIC (Bacillus cereus; per-compound listing, Example 6, read-out: MIC B. cereus) was 8 µg/mL (≈ 27.4 µM), the “Developmental score, 1/100” value (C. elegans L1 larvae; dilution 1/100) was “+++” and the “Developmental score, 1/200” value (C. elegans L1 larvae; dilution 1/200) was “+++”. For the same compound, the “Developmental score, 1/400” value (C. elegans L1 larvae; dilution 1/400) was “+”, the “Developmental score, 1/800” value (C. elegans L1 larvae; dilution 1/800) was “−” and the “Developmental score, 1/1600” value (C. elegans L1 larvae; dilution 1/1600) was “−”. The “Movement score, 1/100” value (C. elegans) was “++”, the “Movement score, 1/200” value (C. elegans) was “++” and the “Movement score, 1/400” value (C. elegans) was “++”. The “Movement score, 1/800” value (C. elegans) was “++”, the “Movement score, 1/1600” value (C. elegans) was “+” and the “effect on worms at the lowest concentrations tested” value (C. elegans; lowest concentrations tested, at least triplicate) was “reduced motility, paralysis, or death”. The MIC (Mycobacterium avium; [20]) was 64 µg/mL (≈ 219 µM), the MIC [8, 21] was 8 µg/mL (≈ 27.4 µM) and the MIC ([8]; Staphylococcus aureus, per-compound listing, Example 6, read-out: MIC S. aureus) was 16 µg/mL (≈ 54.7 µM). The MIC (M. kansasii; [22]) was 64 µg/mL (≈ 219 µM), the MIC [14, 23] was 64 µg/mL (≈ 219 µM) and the MIC (Mycobacterium chelonae; [24]) was 128 µg/mL (≈ 438 µM). The MIC ([17]; read-out: MIC MRSA) was 8 µg/mL (≈ 27.4 µM) and the MIC ([17]; read-out: MIC S. aureus MC-1) was 8 µg/mL (≈ 27.4 µM).
